From patent US6448202B1, “Withering-preventing and quick-acting nutrition supplementing agent for gramineous plants” (Ajinomoto Co., Inc., priority 1999, dated 2002)

Tested on: lawn grass (European grass, evergreen lawn grass)
Assay: Hydroponic cultivation of a lawn grass: withering prevention and growth
Format: in vivo
Conditions: for Average root length / Leaf length MAX. / Leaf length MIN. / Total weight of living plant: 5 stocks; for Number of days till the plants were withered: from transplantation till about 70 percent of the leaves were withered
Description: Seedlings of a lawn grass (European grass, evergreen lawn grass) were cultivated and divided into eight groups of A to H, one group being composed of 80 stocks. In the groups B to H, inosine and uridine were added to each hydroponic liquid in such amount that the concentration became as shown in the table, and proline was diluted with water such that the concentration became as shown in the table and sprayed onto the leaves every day. Group A was the control.
On the 35th day, five average stocks which had not been withered were sampled from each group. […] In the table, the number of days till the plants were withered means the number of days from transplantation of the seedlings till about 70 percent of the leaves were withered.

[1] = group B: 2 ppm inosine in hydroponic liquid
[2] = group B: 2 ppm inosine in hydroponic liquid, 35th day
[3] = group D: 2 ppm proline sprayed onto leaves every day, 35th day
[4] = group F: 35 ppm proline sprayed onto leaves every day, 35th day
[5] = group G: 0.1 ppm proline sprayed onto leaves every day, 35th day

OC[C@H]1O[C@@H](n2cnc3c(O)ncnc32)[C@H](O)[C@@H]1O [inosine, reference compound]
Remarks [1]: Wilted and partially
Average root length [2]: 2 cm
Leaf length MAX. [2]: 27 cm
Leaf length MIN. [2]: 8 cm
Total weight of living plant [2]: 0.22 g
Number of days till the plants were withered [1]: 25 days

O=C(O)[C@@H]1CCCN1 [proline]
Remarks (group D: 2 ppm proline): Both leaves and steins
Average root length [3]: 3 cm
Leaf length MAX. [3]: 21 cm
Leaf length MIN. [3]: 12 cm
Total weight of living plant [3]: 0.54 g
Number of days till the plants were withered (group D: 2 ppm proline): 38 days
Remarks (group F: 35 ppm proline): Partially wilted.
Average root length [4]: 2 cm
Leaf length MAX. [4]: 20 cm
Leaf length MIN. [4]: 8 cm
Total weight of living plant [4]: 0.28 g
Number of days till the plants were withered (group F: 35 ppm proline): 28 days
Remarks (group G: 0.1 ppm proline): Partially wilted.
Average root length [5]: 2 cm
Leaf length MAX. [5]: 19 cm
Leaf length MIN. [5]: 7 cm
Total weight of living plant [5]: 0.22 g
Number of days till the plants were withered (group G: 0.1 ppm proline): 27 days
Growth at the root, leaf length and total weight of the living plants (proline-treated plot, especially at a concentration of 2 ppm, 35th day): better growth
